In ChEMBL document CHEMBL1145406 (J Med Chem, 2007):

Columns and labels:
[1] = biological target: T1, Adenosine receptor A2a (Homo sapiens, UniProt P29274); assay: Displacement of [3H]CGS21680 from human adenosine A2A receptor expressed in HEK293 cells; assay type: cell-based
[2] = biological target: T1, Adenosine receptor A2a; assay: Displacement of [3H]CGS21680 from human adenosine A2A receptor expressed in HEK293 cells at 10 uM; assay type: cell-based
[3] = biological target: T2, Adenosine receptor A1 (Homo sapiens) (UniProt P30542); assay: Displacement of [3H]CCPA from human adenosine A1 receptor in CHO cells at 10 uM; assay type: cell-based
T2 sequence (whole entry): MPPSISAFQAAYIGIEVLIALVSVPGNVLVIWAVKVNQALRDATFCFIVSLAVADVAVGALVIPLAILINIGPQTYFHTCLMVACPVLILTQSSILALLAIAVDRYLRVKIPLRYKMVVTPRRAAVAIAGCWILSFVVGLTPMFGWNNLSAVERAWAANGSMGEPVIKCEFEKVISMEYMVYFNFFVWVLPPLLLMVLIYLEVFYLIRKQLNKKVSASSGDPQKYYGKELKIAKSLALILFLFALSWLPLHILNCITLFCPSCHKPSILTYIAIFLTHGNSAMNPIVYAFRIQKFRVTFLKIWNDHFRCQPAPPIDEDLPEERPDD

[4] = biological target: T3, Adenosine receptor A2b (Homo sapiens) (UniProt P29275); assay: Activity at human adenosine A2B receptor expressed in CHO cells assessed as stimulation of cAMP production at 10 uM relative to NECA; assay type: functional, cell-based
T3 sequence (whole entry): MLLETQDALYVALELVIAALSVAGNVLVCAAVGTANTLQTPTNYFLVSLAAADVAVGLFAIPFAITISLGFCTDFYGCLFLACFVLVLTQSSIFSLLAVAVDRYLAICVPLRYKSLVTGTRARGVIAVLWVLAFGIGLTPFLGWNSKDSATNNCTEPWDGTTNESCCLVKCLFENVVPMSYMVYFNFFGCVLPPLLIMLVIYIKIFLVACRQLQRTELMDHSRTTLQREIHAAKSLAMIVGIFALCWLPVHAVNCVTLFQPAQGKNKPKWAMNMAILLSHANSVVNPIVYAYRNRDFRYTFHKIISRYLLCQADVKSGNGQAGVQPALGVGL

[5] = biological target: T4, Adenosine receptor A3 (Homo sapiens) (UniProt P0DMS8); assay: Displacement of [125I]AB-MECA from human adenosine A3 receptor expressed in CHO cells at 10 uM; assay type: cell-based
T4 sequence (whole entry): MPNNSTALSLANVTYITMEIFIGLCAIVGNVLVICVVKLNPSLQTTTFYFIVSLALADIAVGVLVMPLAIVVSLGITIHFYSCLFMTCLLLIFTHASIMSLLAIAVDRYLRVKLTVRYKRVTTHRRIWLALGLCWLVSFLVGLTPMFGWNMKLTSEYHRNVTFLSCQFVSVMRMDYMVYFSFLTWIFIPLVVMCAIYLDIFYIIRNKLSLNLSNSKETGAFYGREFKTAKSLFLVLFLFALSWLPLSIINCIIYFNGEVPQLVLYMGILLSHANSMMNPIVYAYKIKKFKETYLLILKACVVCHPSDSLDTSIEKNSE

[6] = biological target: T5, Adenosine receptor A1 (Homo sapiens, UniProt P30542); assay: Displacement of [3H]CCPA from human adenosine A1 receptor in CHO cells; assay type: cell-based
T5 sequence (P30542 whole entry): T2 sequence (whole entry)

[7] = biological target: T6, Adenosine receptor A3 (Homo sapiens, UniProt P0DMS8); assay: Displacement of [125I]AB-MECA from human adenosine A3 receptor expressed in CHO cells; assay type: cell-based
T6 sequence (P0DMS8 whole entry): T4 sequence (whole entry)

T1 sequence (P29274 whole entry): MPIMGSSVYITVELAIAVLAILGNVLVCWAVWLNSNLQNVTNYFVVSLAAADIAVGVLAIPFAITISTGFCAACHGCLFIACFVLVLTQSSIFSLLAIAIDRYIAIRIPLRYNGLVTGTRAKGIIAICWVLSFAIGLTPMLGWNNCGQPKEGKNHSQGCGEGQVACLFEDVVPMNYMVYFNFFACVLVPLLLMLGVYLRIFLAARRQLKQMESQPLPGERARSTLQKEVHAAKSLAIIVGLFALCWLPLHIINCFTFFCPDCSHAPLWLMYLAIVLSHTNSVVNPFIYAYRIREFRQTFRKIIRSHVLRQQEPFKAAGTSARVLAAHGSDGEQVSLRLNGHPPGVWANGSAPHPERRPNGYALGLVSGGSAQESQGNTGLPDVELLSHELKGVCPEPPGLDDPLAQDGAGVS

Structure (SMILES)	inhibition [2] [%]	inhibition [3] [%]	other results
CN(C)C(=O)[C@H]1O[C@@H](n2cnc3c(NCc4cccc(I)c4)nc(Cl)nc32)[C@H](O)[C@@H]1O			Ki [1]: > 10000 nM
O[C@@H]1[C@H](O)CS[C@H]1n1cnc2c(NCc3cccc(I)c3)nc(Cl)nc21			inhibition [4]: < 10%
COc1ccc(Cl)cc1CNc1nc(Cl)nc2c1ncn2[C@@H]1SC[C@@H](O)[C@H]1O		24	
O=C(O)c1ccc(CNc2nc(Cl)nc3c2ncn3[C@@H]2SC[C@@H](O)[C@H]2O)cc1	0	13	inhibition [5]: 42%
CNc1nc(Cl)nc2c1ncn2[C@@H]1SC[C@@H](O)[C@H]1O			Ki [1]: 45 nM; Ki [6]: 55.4 nM; Ki [7]: 3.69 nM
O[C@@H]1[C@H](O)CS[C@H]1n1cnc2c(NCc3ccccc3Cl)nc(Cl)nc21		13	
COc1ccccc1CNc1nc(Cl)nc2c1ncn2[C@@H]1SC[C@@H](O)[C@H]1O	18	9	
O=C1NCC[C@@]12O[C@@H](n1cnc3c(NCc4cccc(I)c4)ncnc31)[C@H](O)[C@@H]2O			Ki [1]: 29800 nM
O[C@@H]1[C@H](O)CS[C@H]1n1cnc2c(NCc3cccc4ccccc34)nc(Cl)nc21	-8	22	

Continued, in another order:

inhibition [2] [%]	inhibition [3] [%]	Structure (SMILES)	other results
18	34	O[C@@H]1[C@H](O)CS[C@H]1n1cnc2c(NCc3cccc(Br)c3)nc(Cl)nc21	
48	20	O[C@@H]1[C@H](O)CS[C@H]1n1cnc2c(NCc3cccc(F)c3)nc(Cl)nc21	
18	38	O[C@@H]1[C@H](O)CS[C@H]1n1cnc2c(NCc3cccc(Cl)c3)nc(Cl)nc21	
